Columns and labels:
SK-MEL-5 = assay: NCI 60 cell line screen (SRB), melanoma; format: cell-based; details: Homo sapiens
LOX IMVI = assay: cells; format: cell-based; details: Homo sapiens; for CC50: read-out: Log10 LC50 (converted); for IC (TGI): read-out: Log10 TGI (converted)
MCF7/ADR-RES = assay: cells; format: cell-based; details: Homo sapiens; for GI50: read-out: Log10 GI50 (converted)
SF-268 = assay: NCI 60 cell line screen (SRB), CNS cancer; format: cell-based; details: Homo sapiens; for GI50: read-out: Log10 GI50 (converted)
NCI-H522 = assay: cells; format: cell-based; details: Homo sapiens; for IC (TGI): read-out: Log10 TGI (converted)
HCC-2998 = assay: NCI 60 cell line screen (SRB), colon cancer; format: cell-based; details: Homo sapiens
[1] = stability of pyranosyl fluorides; format: physicochemical; details: after purification
From the text: Coupling of either the α-fluoride or the β-fluoride VI with trimethylaluminum in the presence of boron trifluoride-etherate gave 10β-methyl derivative VII where n=1 and R=CH3 with almost complete stereoselectivity, thereby implicating a common oxygen-stabilized C-10 carbocation intermediate. The relative stereochemistry at carbons 9 and 10 was established by the characteristic ^1 H NMR chemical shifts and coupling constants of the methine hydrogen atoms at these positions (J9,10 =10-11 Hz for trans and J9,10 =5.6-6.7 Hz for cis). […] Several dimethyl aluminum acetylides, prepared from Me2 AlCl and the corresponding lithium acetylides, coupled smoothly to form exclusively the 10β-acetylenic derivatives. Di- and tri-methoxylated benzenes and heteroaromatic N-methylpyrrole and furan coupled to produce exclusively, in stereochemical contrast, the 10α-oriented derivatives. Apparently, relatively small nucleophiles approach the intermediate cation from the β-face of the molecule, whereas relatively large aryl and heteroaryl nucleophiles approach from the α-face (i.e. directed by and trans to the C-9 methyl group). Coupling of pyranosyl fluoride VI with N-methylpyrrole proceeded equally well on 400 mg scale as on 20 mg scale, and larger scale executions of this and of the other coupling reactions reported here are not expected to be a problem.

MDA-MB-435 = assay: cells; format: cell-based; details: Homo sapiens; for IC (TGI): read-out: Log10 TGI (converted)
CAKI-1 = assay: NCI 60 cell line screen (SRB), renal cancer; details: Homo sapiens; for CC50: CAKI-1, read-out: Log10 LC50 (converted)
NCI-H322M = assay: cells; format: cell-based; details: Homo sapiens, read-out: Log10 TGI
SF-539 = assay: cells; format: cell-based; details: Homo sapiens; for GI50: read-out: Log10 GI50 (converted); for IC (TGI): read-out: Log10 TGI (converted)
OVCAR-3 = assay: NCI 60 cell line screen (SRB), ovarian cancer; format: cell-based; details: Homo sapiens; for GI50: read-out: Log10 GI50 (converted)
SK-MEL-28 = assay: cells; format: cell-based; details: Homo sapiens
786-0 = assay: cells; format: cell-based; details: Homo sapiens; for IC (TGI): read-out: Log10 TGI (converted)
CCRF-CEM = assay: NCI 60 cell line screen (SRB), leukemia; format: cell-based; details: Homo sapiens; for IC (TGI): read-out: Log10 TGI (converted)
UACC-257 = assay: cells; format: cell-based; details: Homo sapiens
UACC-62 = assay: cells; format: cell-based; details: Homo sapiens; for CC50: read-out: Log10 LC50 (converted)
DU-145 = assay: cells; format: cell-based; details: Homo sapiens
COLO 205 = assay: NCI 60 cell line screen (SRB), colon cancer; format: cell-based; details: Homo sapiens; for CC50: read-out: Log10 LC50 (converted); for IC (TGI): read-out: Log10 TGI (converted)
SK-OV-3 = assay: NCI 60 cell line screen (SRB), ovarian cancer; format: cell-based; details: Homo sapiens
HS 578T = assay: cells; format: cell-based; details: Homo sapiens; for CC50: read-out: Log10 LC50 (converted); for IC (TGI): read-out: Log10 TGI (converted)
[2] = test system: chloroquine-sensitive P. falciparum (NF54); assay: In vitro antimalarial activity ([3H]hypoxanthine incorporation); format: cell-based
Description: Activity was determined by measuring the incorporation of [^3 H]hypoxanthine, by the methods of Desjardins and Milhouse, with the following modofications, see […].; Haynes, […]. Antimicrob. Agents Chemother., 16:710 (1979); Milhous, W. K.; Weatherly, […].; Antimicrob. Agents Chemother., 27: 525 (1985). […] Parasitemia was maintained at 0.05-3% and doubling time at approximately 15 hours by twice weekly change of medium and replenishment with fresh erythrocytes. […] Sigma-Aldrich #27,043-1). DMSO solutions were diluted 500-fold in medium, serially diluted in 0.2% DMSO in medium (to maintain constant solvent concentration), then 100 μL aliquots were pipetted into microtiter plate wells (Costar 3595). […] Plates included at least 8 wells of no drug controls (4 with and 4 without DMSO) and 4 wells of uninfected erythrocytes. […] Cells were harvested (Brandel MB-48R) onto GF-C glass filters (Brandel). The filters were washed five times with 3 mL water per sample spot, dried under a heat lamp, and counted (Beckman Model LS-6500) in scintillation cocktail (ICN Cytoscint). Decays per minute (dpm) values were downloaded and analyzed (Power MFacintosh 7200/90; Microsoft Excel 5.0), to yield the mean and standard deviation at each drug concentration.

MALME-3M = assay: cells; format: cell-based; details: Homo sapiens; for IC (TGI): read-out: Log10 TGI (converted)
OVCAR-5 = assay: NCI 60 cell line screen (SRB), ovarian cancer; format: cell-based; details: Homo sapiens; for CC50: read-out: Log10 LC50 (converted); for IC (TGI): read-out: Log10 TGI (converted)
OVCAR-4 = assay: NCI 60 cell line screen (SRB), ovarian cancer; format: cell-based; details: Homo sapiens, read-out: Log10 GI50 (converted)
RPMI-8226 = assay: cells; format: cell-based; details: Homo sapiens
P. berghei = details: P. berghei-infected mice; cited from earlier work
P. falciparum = details: two Hanian strains; cited from earlier work
[3] = read-out: Log10 LC50 (converted)
[4] = read-out: Log10 TGI (converted)
[5] = read-out: Log10 GI50 (converted)

SMILES	CC50 (LOX IMVI) [µM]	IC (TGI) (LOX IMVI) [µM]	GI50 (MCF7/ADR-RES) [µM]	GI50 (SF-268) [µM]	IC (TGI) (NCI-H522) [µM]	IC (TGI) (MDA-MB-435) [µM]	CC50 (CAKI-1) [µM]	GI50 (SF-539) [µM]	IC (TGI) (SF-539) [µM]	GI50 (OVCAR-3) [µM]	IC (TGI) (786-0) [µM]	IC (TGI) (CCRF-CEM) [µM]	CC50 (UACC-62) [µM]	CC50 (COLO 205) [µM]	IC (TGI) (COLO 205) [µM]	CC50 (HS 578T) [µM]	IC (TGI) (HS 578T) [µM]	IC (TGI) (MALME-3M) [µM]	CC50 (OVCAR-5) [µM]	IC (TGI) (OVCAR-5) [µM]	other results
C[C@H]1[C@@H](F)O[C@@H]2O[C@@]3(C)CC[C@H]4[C@H](C)CC[C@@H]1[C@@]24OO3 [Compound VI, 10β-Fluorodeoxoartemisinin]	31.6	275	3.55	13.8	16.6	7.24	47.9	14.1	40.7	2.88	14.8	53.7									CC50 (SK-MEL-5; [3]): 61.7 µM; IC (TGI) (SK-MEL-5; [4]): 13.5 µM; GI50 (LOX IMVI; [5]): 0.355 µM; GI50 (NCI-H522; [5]): 0.851 µM; CC50 (NCI-H522; [3]): 64.6 µM; GI50 (HCC-2998; [5]): 14.5 µM; IC (TGI) (HCC-2998; [4]): 12.9 µM; stability of solid [1]: stable crystalline solid; GI50 (MDA-MB-435; [5]): 0.692 µM; CC50 (MDA-MB-435; [3]): 34.7 µM; GI50 (CAKI-1; CAKI-1, read-out: Log10 GI50 (converted)): 724 µM; IC (TGI) (NCI-H322M): > 100 µM; GI50 (SK-MEL-28; [5]): 17.8 µM; GI50 (786-0; [5]): 1.55 µM; GI50 (CCRF-CEM; CCRP-CEM, read-out: Log10 GI50 (converted)): 0.562 µM
C[C@H]1[C@@H](CC(=O)c2ccc(C(=O)C[C@H]3O[C@@H]4O[C@@]5(C)CC[C@H]6[C@H](C)CC[C@@H]([C@H]3C)[C@@]46OO5)cc2)O[C@@H]2O[C@@]3(C)CC[C@H]4[C@H](C)CC[C@@H]1[C@@]24OO3 [Dimer 21]	49	12	0.0105	0.0631	28.2	25.1	27.5	0.0166	14.5	0.692	14.8	45700	95.5	0.0759	0.0407	72.4	15.1	28.2	60.3	14.5	IC (TGI) (UACC-257; [4]): 17.8 µM; CC50 (MCF7/ADR-RES; [3]): 79.4 µM; IC (TGI) (MCF7/ADR-RES; [4]): 14.1 µM; GI50 (UACC-62; [5]): 0.0724 µM; IC (TGI) (UACC-62; [4]): 27.5 µM; GI50 (DU-145; [5]): 6.31 µM; IC (TGI) (DU-145; [4]): 31.6 µM; IC (TGI) (SF-268; [4]): 79.4 µM; GI50 (SK-OV-3; [5]): 263 µM; CC50 (SK-OV-3; [3]): 52.5 µM; IC (TGI) (CAKI-1; CAKI-1, read-out: Log10 TGI): 0.0891 µM; IC50 compared with artemisinin ([2]; in words): lower than that of artemisinin; CC50 (SF-539; [3]): 38 µM; IC (TGI) (OVCAR-3; [4]): 28.2 µM; GI50 (MALME-3M; [5]): 0.0468 µM; GI50 (OVCAR-4): 1.58 µM
C[C@@H]1CC[C@H]2[C@@H](C)C(=O)O[C@@H]3O[C@@]4(C)CC[C@@H]1[C@]32OO4 [Artemisinin]													> 100	> 100	> 100	> 100	> 100	87.1	> 100	> 100	CC50 (UACC-257; [3]): > 100 µM; CC50 (RPMI-8226; [3]): > 100 µM; IC (TGI) (RPMI-8226; read-out: Log10 TGI): > 100 µM; SD90 (parasitemia 90 percent suppressed) (P. berghei): 6.20 mg/kg; IC50 ([2]; Plasmodium falciparum, NF54): 0.01 µM; CC50 (MALME-3M; [3]): > 100 µM; CC50 (SK-MEL-28; [3]): > 100 µM; IC (TGI) (SK-MEL-28; read-out: Log10 TGI): > 100 µM; potency in vitro compared with chloroquine (P. falciparum): comparable to that of chloroquine

From patent US6156790A, “C-10 carbon-substituted artemisinin-like trioxane compounds having antimalarial, antiproliferative and antitumor activities” (priority 1997, dated 2000)
